This passage reports Emax and EC50 results from US12122761B2, “2-azaspiro[3.4]octane derivatives as M4 agonists” (NOVARTIS AG, priority 2019, dated 2024).

Holding throughout (assay type): cell-based
For assay [1], the target named is T1, human cloned CHRM2 receptor (M2_CHO cells) (Homo sapiens, UniProt P08172).
T1 construct: expressed in transfected cells; host or cells: CHO-K1
T1 sequence (P08172 1-466): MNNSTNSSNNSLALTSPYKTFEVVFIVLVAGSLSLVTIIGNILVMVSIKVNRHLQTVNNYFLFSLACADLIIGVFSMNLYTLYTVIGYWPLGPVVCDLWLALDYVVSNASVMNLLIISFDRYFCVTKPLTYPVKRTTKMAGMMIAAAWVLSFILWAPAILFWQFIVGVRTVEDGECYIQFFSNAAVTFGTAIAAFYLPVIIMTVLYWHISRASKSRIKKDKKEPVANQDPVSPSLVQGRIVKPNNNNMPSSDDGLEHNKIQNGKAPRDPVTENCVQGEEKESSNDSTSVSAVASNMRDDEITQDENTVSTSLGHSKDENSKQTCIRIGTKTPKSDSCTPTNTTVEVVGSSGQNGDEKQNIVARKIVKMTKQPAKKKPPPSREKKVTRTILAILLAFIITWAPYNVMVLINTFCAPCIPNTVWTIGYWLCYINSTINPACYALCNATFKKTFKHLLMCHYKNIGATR
The experiment in a line: CHRM2 Ca++ Flux Assay (agonist mode, FDSS 7000EX). The following applies: for Emax: Percent Activity measured to EC100 of Carbachol, read-out: M2 FDSS PA; for EC50: agonist mode, geometric mean if tested more than once, read-out: M2 FDSS EC50. In outline:
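Agonist-mode Ca++ flux in CHO-K1 cells stably expressing human CHRM2, dye-loaded, then held 60 min at room temperature in buffer with 20 μM ATP before compound addition; traces read over 3 minutes. Four-parameter fit of triplicate wells; percent activity relative to Carbachol EC100.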

Assay [2] deals with T2, human cloned CHRM3 receptor (M3_CHO cells) (Homo sapiens, UniProt P20309).
T2 construct: expressed in transfected cells; host or cells: CHO-K1
T2 sequence (P20309 whole entry): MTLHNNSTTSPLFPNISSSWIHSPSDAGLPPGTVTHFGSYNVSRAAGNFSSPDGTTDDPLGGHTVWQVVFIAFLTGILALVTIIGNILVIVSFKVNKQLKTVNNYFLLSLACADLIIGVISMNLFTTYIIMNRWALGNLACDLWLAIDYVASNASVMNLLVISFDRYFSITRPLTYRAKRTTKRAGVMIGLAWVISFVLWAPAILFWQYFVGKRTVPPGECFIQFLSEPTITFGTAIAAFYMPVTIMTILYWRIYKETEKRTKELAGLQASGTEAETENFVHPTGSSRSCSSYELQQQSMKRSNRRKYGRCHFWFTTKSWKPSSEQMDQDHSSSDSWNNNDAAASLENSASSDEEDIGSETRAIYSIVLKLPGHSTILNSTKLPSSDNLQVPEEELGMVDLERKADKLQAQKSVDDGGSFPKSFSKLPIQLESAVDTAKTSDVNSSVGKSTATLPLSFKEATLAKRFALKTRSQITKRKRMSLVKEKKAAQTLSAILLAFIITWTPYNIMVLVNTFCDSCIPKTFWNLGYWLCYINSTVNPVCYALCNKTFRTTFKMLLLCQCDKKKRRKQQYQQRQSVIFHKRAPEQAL
Nature of the assay: CHRM3 Ca++ Flux Assay (agonist mode, FDSS 7000EX). The following applies: for Emax: Percent Activity measured to EC100 of Carbachol, read-out: M3 FDSS PA; for EC50: agonist mode, geometric mean if tested more than once, read-out: M3 FDSS EC50. In outline: (§1)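 CHO-K1 cells stably expressing human M3 or M5 receptor were dye-loaded for at least 1 h in HBSS with 20 mM HEPES and 2.5 mM probenecid, then given 11-point compound doses in triplicate.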

For assay [3], the target named is T3, human cloned CHRM5 receptor (M5_CHO) (Homo sapiens, UniProt P08912).
T3 construct: expressed in transfected cells; host or cells: CHO (M5_CHO)
T3 sequence (P08912 1-532): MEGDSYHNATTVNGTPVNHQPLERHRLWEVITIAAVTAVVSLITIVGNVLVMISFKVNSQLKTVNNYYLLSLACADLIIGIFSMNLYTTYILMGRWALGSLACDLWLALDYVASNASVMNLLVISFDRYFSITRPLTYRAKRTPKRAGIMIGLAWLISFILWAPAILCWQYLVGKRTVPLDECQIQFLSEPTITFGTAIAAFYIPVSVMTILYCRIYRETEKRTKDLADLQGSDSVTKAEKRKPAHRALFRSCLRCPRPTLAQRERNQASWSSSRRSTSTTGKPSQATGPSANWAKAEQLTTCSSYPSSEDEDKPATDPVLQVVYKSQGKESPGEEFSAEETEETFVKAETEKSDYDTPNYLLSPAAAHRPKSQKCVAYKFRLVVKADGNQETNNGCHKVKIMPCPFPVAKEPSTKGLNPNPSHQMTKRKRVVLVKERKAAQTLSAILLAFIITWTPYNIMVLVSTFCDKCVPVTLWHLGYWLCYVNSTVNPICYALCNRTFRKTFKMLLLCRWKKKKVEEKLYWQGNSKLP
The experiment in a line: CHRM5 Ca++ Flux Assay (agonist mode, FDSS 7000EX). Conditions: for Emax: Percent Activity measured to EC100 of Carbachol, read-out: M5 FDSS PA; for EC50: agonist mode, geometric mean if tested more than once, read-out: M5 FDSS EC50. In outline: as §1

A value given as a limit tells only on which side of the number the result lay.

Take `c1ccc(C2CCN([C@@H]3CCC4(C3)CN(c3cncnc3)C4)CC2)c(OC2CC3(COC3)C2)c1` [Example 1O, (R)-6-(4-(2-((2-oxaspiro[3.3]heptan-6-yl)oxy)phenyl)piperidin-1-yl)-2-(pyrimidin-5-yl)-2-azaspiro[3.4]octane]: the Emax in assay [1], in assay [2] and in assay [3] was 0% in each case. Also, the concentration giving a half-maximal response (EC50) in assay [2] and in assay [3] was over 25 µM in each case.

`c1ccc(C2CCN([C@@H]3CCC4(C3)CN(c3cncnc3)C4)CC2)c(O[C@@H]2CCOC2)c1` [Example 1P, (R)-2-(pyrimidin-5-yl)-6-(4-(2-(((R)-tetrahydrofuran-3-yl)oxy)phenyl)piperidin-1-yl)-2-azaspiro[3.4]octane]: the results for the Emax in assay [1], in assay [2] and in assay [3] were 7%, 0% and 0%, respectively. For the same compound, the EC50 in assay [1] was 0.007 µM; in assay [2], over 25 µM; in assay [3], over 25 µM.

Turning to `CC(C)(O)COc1ccccc1C1CCN([C@@H]2CCC3(C2)CN(c2nnco2)C3)CC1` [Example 2A, (R)-1-(2-(1-(2-(1,3,4-oxadiazol-2-yl)-2-azaspiro[3.4]octan-6-yl)piperidin-4-yl)phenoxy)-2-methylpropan-2-ol], the Emax in assay [1] amounted to 12%; in assay [2] it was 0%; in assay [3] it was 0%. In addition, the EC50 in assay [1] is 0.117 µM; in assay [2], over 25 µM; in assay [3], over 25 µM.

`c1ccc(C2CCN([C@@H]3CCC4(C3)CN(c3nnco3)C4)CC2)c(O[C@@H]2CCOC2)c1` [Example 2B, 2-((R)-6-(4-(2-(((R)-tetrahydrofuran-3-yl)oxy)phenyl)piperidin-1-yl)-2-azaspiro[3.4]octan-2-yl)-1,3,4-oxadiazole]: the Emax in assay [1] was 32%; in assay [2] it was 0%; in assay [3], 0%. In addition, the concentration for a half-maximal effect (EC50) in assay [1] is 0.039 µM; in assay [2] it was over 25 µM; in assay [3], over 25 µM.

For `COCCOc1ccccc1C1CCN([C@@H]2CCC3(C2)CN(c2nnco2)C3)CC1` [Example 2C], the Emax in assay [1], in assay [2] and in assay [3] was 0% each time. For the same compound, the EC50 in assay [2] and in assay [3] was over 25 µM throughout.

As to `FC1(COc2ccccc2C2CCN([C@@H]3CCC4(C3)CN(c3nnco3)C4)CC2)CCOCC1` [Example 2D, (R)-2-(6-(4-(2-((4-fluorotetrahydro-2H-pyran-4-yl)methoxy)phenyl)piperidin-1-yl)-2-azaspiro[3.4]octan-2-yl)-1,3,4-oxadiazole], the values for the Emax in assay [1], in assay [2] and in assay [3] were 8%, 0% and 0%, respectively. Also, the EC50 in assay [1] was 0.05 µM; in assay [2] it was over 25 µM; in assay [3] it was over 25 µM.

`CC1(COc2ccccc2C2CCN([C@@H]3CCC4(C3)CN(c3nnco3)C4)CC2)CCOCC1` [Example 2E, (R)-2-(6-(4-(2-((4-methyltetrahydro-2H-pyran-4-yl)methoxy)phenyl)piperidin-1-yl)-2-azaspiro[3.4]octan-2-yl)-1,3,4-oxadiazole]: the Emax turned out to be 10% in assay [1], 0% in assay [2] and 0% in assay [3]. Also, the EC50 in assay [1] is 0.09 µM; in assay [2], over 25 µM; in assay [3], over 25 µM.

Turning to `c1ccc(C2CCN([C@@H]3CCC4(C3)CN(c3nnco3)C4)CC2)c(OC2CCOCC2)c1` [Example 2F, (R)-2-(6-(4-(2-((tetrahydro-2H-pyran-4-yl)oxy)phenyl)piperidin-1-yl)-2-azaspiro[3.4]octan-2-yl)-1,3,4-oxadiazole], the Emax in assay [1] is 22%; in assay [2] it was 0%; in assay [3], 0%. Also, the EC50 in assay [1] was 0.064 µM; in assay [2] it was over 25 µM; in assay [3], over 25 µM.

For the compound `c1ccc(C2CCN([C@@H]3CCC4(C3)CN(c3nnco3)C4)CC2)c(OCC2CCOCC2)c1` [Example 2G, (R)-2-(6-(4-(2-((tetrahydro-2H-pyran-4-yl)methoxy)phenyl)piperidin-1-yl)-2-azaspiro[3.4]octan-2-yl)-1,3,4-oxadiazole], the Emax was 19% in assay [1], 0% in assay [2] and 0% in assay [3]. Also, the half-maximal effective concentration (EC50) is 0.136 µM in assay [1], over 25 µM in assay [2] and over 25 µM in assay [3].

With `c1ccc(C2CCN([C@@H]3CCC4(C3)CN(c3nnco3)C4)CC2)c(C2CCOCC2)c1` [Example 2H, (R)-2-(6-(4-(2-(tetrahydro-2H-pyran-4-yl)phenyl)piperidin-1-yl)-2-azaspiro[3.4]octan-2-yl)-1,3,4-oxadiazole], the Emax in assay [1] is 32%; in assay [2] it was 0%; in assay [3], 0%. For the same compound, the EC50 in assay [1] was 0.458 µM; in assay [2] it was over 25 µM; in assay [3], over 25 µM.

In the case of `Fc1ccc(C2CCOCC2)c(C2CCN([C@@H]3CCC4(C3)CN(c3nnco3)C4)CC2)c1` [Example 2I, (R)-2-(6-(4-(5-fluoro-2-(tetrahydro-2H-pyran-4-yl)phenyl)piperidin-1-yl)-2-azaspiro[3.4]octan-2-yl)-1,3,4-oxadiazole], the results for the Emax in assay [1], in assay [2] and in assay [3] were 41%, 0% and 0%, respectively. Also, the EC50 was 0.125 µM in assay [1], over 25 µM in assay [2] and over 25 µM in assay [3].

`c1ccc(C2CCOC2)c(C2CCN([C@@H]3CCC4(C3)CN(c3nnco3)C4)CC2)c1` (stereo partly drawn) [Example 2K, 2-((6R)-6-(4-(2-(tetrahydrofuran-3-yl)phenyl)piperidin-1-yl)-2-azaspiro[3.4]octan-2-yl)-1,3,4-oxadiazole]: the Emax in assay [1] came out at 29%; in assay [2] it was 0%; in assay [3] it was 0%. In addition, the EC50 in assay [1] was 0.159 µM; in assay [2], over 25 µM; in assay [3] it was over 25 µM.

Turning to `c1ccc(C2CCN([C@@H]3CCC4(C3)CN(c3nnco3)C4)CC2)c(CC2CCOCC2)c1` [Example 2L, (R)-2-(6-(4-(2-((tetrahydro-2H-pyran-4-yl)methyl)phenyl)piperidin-1-yl)-2-azaspiro[3.4]octan-2-yl)-1,3,4-oxadiazole], the Emax in assay [1], in assay [2] and in assay [3] was 0% in each case. For the same compound, the concentration for a half-maximal effect (EC50) in assay [2] and in assay [3] was over 25 µM each time.

As for `c1ccc(C2CCN([C@@H]3CCC4(C3)CN(c3nnco3)C4)CC2)c(-c2ncco2)c1` [Example 2M, (R)-2-(6-(4-(2-(oxazol-2-yl)phenyl)piperidin-1-yl)-2-azaspiro[3.4]octan-2-yl)-1,3,4-oxadiazole], the Emax in assay [1] turned out to be 18%; in assay [2], 0%; in assay [3] it was 0%. The EC50 in assay [1] is 0.343 µM; in assay [2], over 25 µM; in assay [3] it was over 25 µM.

For `c1ccc(C2CCN([C@@H]3CCC4(C3)CN(c3nncs3)C4)CC2)c(OC2COC2)c1` [Example 3A, (R)-2-(6-(4-(2-(oxetan-3-yloxy)phenyl)piperidin-1-yl)-2-azaspiro[3.4]octan-2-yl)-1,3,4-thiadiazole], the Emax came to 21% in assay [1], 0% in assay [2] and 0% in assay [3]. The values for the EC50 in assay [1], in assay [2] and in assay [3] were 0.076 µM, over 25 µM and over 25 µM, respectively.

For orientation: EC50 means the concentration giving half of the maximal effect.
